Experimental findings from ChEMBL document CHEMBL1126104, “Synthesis and antiviral activity of some new S-adenosyl-L-homocysteine derivatives” (1992) are described below.

In brackets after ≈: the same amount, converted by molar mass.

For experiment [1], the system named is Human immunodeficiency virus 1. The experiment in a line: Antiviral activity against (HIV-1) in MT-4 cells Value in parentheses is inhibitory concentration for cell growth (MT-4). It is filed as functional, MT4.
Another experiment deals with Human alphaherpesvirus 2. The experiment in a line: Antiviral activity against HSV-2(G) strain in primary rabbit kidney (PRK) / embryonic skin-muscle (E6SM) fibroblast culture lines. It is filed as functional. The conditions noted are these: Human alphaherpesvirus 2, Muscle tissue.
Experiment [2] has as its system Coxsackievirus B4. The experiment in a line: Antiviral activity against coxsackie B4 in Vero cell culture lines. Type of experiment: functional. Conditions: Enterovirus B.
Experiment [3] relates to Coxsackievirus B4. In words: Antiviral activity against coxsackie B4 virus in HeLa cell culture lines. Type of experiment: functional. The conditions noted are these: Enterovirus B.
A further experiment relates to Semliki Forest virus. The experiment in a line: Antiviral activity against semliki forest virus (SFV) in Vero cell culture lines. Type of experiment: functional.
In experiment [4] the test system is Vesicular stomatitis virus. In words: Antiviral activity against vesicular stomatitis virus (VSV) in HeLa cell culture lines,. It is filed as functional.
Experiment [5] has as its system Vesicular stomatitis virus. In words: Antiviral activity against vesicular stomatitis virus (VSV) in primary rabbit kidney (PRK) / embryonic skin-muscle (E6SM) fibroblast culture lines. It is filed as functional. The conditions noted are these: Muscle tissue.
Another experiment concerns Vaccinia virus. The experiment in a line: Antiviral activity against vaccinia virus (VV) in primary rabbit kidney (PRK) / embryonic skin-muscle (E6SM) fibroblast culture lines. Conditions: Orthopoxvirus vaccinia, Muscle tissue. It is filed as functional.
A further experiment concerns Human alphaherpesvirus 1. In words: Antiviral activity against HSV-1(KOS) strain in primary rabbit kidney (PRK) / embryonic skin-muscle (E6SM) fibroblast culture lines. Type of experiment: functional. The conditions noted are these: Human alphaherpesvirus 1, Muscle tissue.
Another experiment has as its system Poliovirus 1. The experiment in a line: Antiviral activity against polio virus type 1 in HeLa cell culture lines. It is filed as functional. The conditions noted are these: Enterovirus C.
The test system of the next experiment is Human respirovirus 3. The experiment in a line: Antiviral activity against parainfluenza virus type 3 in Vero cell culture lines. It is filed as functional.
Another experiment relates to Sindbis virus. The experiment in a line: Antiviral activity against sindbis virus in Vero cell culture lines. It is filed as functional.
Experiment [6] deals with Mammalian orthoreovirus 1. In words: Antiviral activity against reovirus type 1 in Vero cell culture lines. Type of experiment: functional.

For the compound `Nc1ncnc2c([C@H]3CC[C@@H](CCl)O3)n[nH]c12`, the MIC in experiment [1] was > 100 µg/mL; against Human alphaherpesvirus 2 it was > 200 µg/mL; with Coxsackievirus B4 [2], > 200 µg/mL; against Coxsackievirus B4 [3] it was > 400 µg/mL; in the experiment with Semliki Forest virus, > 400 µg/mL; in experiment [4] it was > 400 µg/mL. The MIC in [5] is > 400 µg/mL; in the experiment with Vaccinia virus, > 400 µg/mL; with Human alphaherpesvirus 1, > 200 µg/mL; against Poliovirus 1, > 400 µg/mL; against Human respirovirus 3 it was > 200 µg/mL; with Sindbis virus it was > 200 µg/mL. In addition, in [6], the MIC was > 200 µg/mL.
For the compound `Nc1nccc2c1ncn2[C@@H]1O[C@H](CO)C[C@H]1O`, the MIC is > 20 µg/mL in [1]; 70 µg/mL (≈ 280 µM) against Human alphaherpesvirus 2; > 100 µg/mL in the experiment on Coxsackievirus B4 [2]; > 40 µg/mL against Coxsackievirus B4 [3]; > 100 µg/mL against Semliki Forest virus; > 40 µg/mL in [4]. Moreover, the MIC in [5] was > 100 µg/mL; against Vaccinia virus, > 40 µg/mL; in the experiment with Human alphaherpesvirus 1, > 100 µg/mL; in the experiment on Poliovirus 1 it was > 40 µg/mL; against Human respirovirus 3, > 100 µg/mL; with Sindbis virus, > 100 µg/mL. Also, the MIC in experiment [6] was > 100 µg/mL.
As to `Nc1ncnc2c1ncn2[C@@H]1O[C@H](CCl)C[C@H]1O`, the MIC was > 100 µg/mL in experiment [1]; > 100 µg/mL in the experiment on Human alphaherpesvirus 2; > 40 µg/mL against Coxsackievirus B4 [2]; > 200 µg/mL in the experiment on Coxsackievirus B4 [3]; > 40 µg/mL against Semliki Forest virus; > 200 µg/mL in experiment [4]. Moreover, the MIC in experiment [5] is > 400 µg/mL; with Vaccinia virus, > 200 µg/mL; in the experiment with Human alphaherpesvirus 1, > 200 µg/mL; against Poliovirus 1 it was > 200 µg/mL; against Human respirovirus 3 it was > 40 µg/mL; in the experiment on Sindbis virus, > 40 µg/mL. In addition, the MIC in [6] is > 40 µg/mL.
Take `Nc1ncnc2c([C@@H]3O[C@H](CO)C[C@H]3O)n[nH]c12`: the MIC in experiment [1] is > 100 µg/mL; in the experiment with Human alphaherpesvirus 2, > 400 µg/mL; with Coxsackievirus B4 [2] it was > 200 µg/mL; in the experiment with Coxsackievirus B4 [3] it was > 400 µg/mL; in the experiment on Semliki Forest virus it was > 400 µg/mL; in [4], > 400 µg/mL. For the same compound, the MIC in experiment [5] is > 400 µg/mL; in the experiment on Vaccinia virus it was > 400 µg/mL; against Human alphaherpesvirus 1, > 400 µg/mL; with Poliovirus 1, > 400 µg/mL; against Human respirovirus 3 it was 300 µg/mL (≈ 1190 µM); in the experiment with Sindbis virus, > 400 µg/mL. Besides, in [6], the MIC is > 200 µg/mL.
Turning to `CCCOC(=O)C(CCSC[C@H]1OC(n2ccc3c(N)ncnc32)[C@H](O)[C@@H]1O)NC(=O)COC` (some centres undefined), the MIC is 0.8 µg/mL (≈ 1.61 µM) in experiment [1]; 10 µg/mL (≈ 20.1 µM) in the experiment on Human alphaherpesvirus 2; 15 µg/mL (≈ 30.1 µM) with Coxsackievirus B4 [2]; 100 µg/mL (≈ 201 µM) in the experiment with Coxsackievirus B4 [3]; > 70 µg/mL in the experiment with Semliki Forest virus; > 20 µg/mL in experiment [4]. Besides, the MIC in experiment [5] was 2 µg/mL (≈ 4.02 µM); against Vaccinia virus, 4 µg/mL (≈ 8.04 µM); with Human alphaherpesvirus 1 it was 20 µg/mL (≈ 40.2 µM); with Poliovirus 1 it was 100 µg/mL (≈ 201 µM); in the experiment with Human respirovirus 3, 20 µg/mL (≈ 40.2 µM); in the experiment on Sindbis virus, > 40 µg/mL. Further, in experiment [6], the MIC is > 30 µg/mL.
For `CC(C)(C)C(=O)ONC(CCSC[C@H]1OC(n2ccc3c(N)ncnc32)[C@H](O)[C@@H]1O)C(=O)OCC[Si](C)(C)C` (some centres undefined), the MIC is > 8 µg/mL in [1]; > 10 µg/mL against Human alphaherpesvirus 2; 70 µg/mL (≈ 120 µM) with Coxsackievirus B4 [2]; > 40 µg/mL with Coxsackievirus B4 [3]; > 40 µg/mL against Semliki Forest virus; > 40 µg/mL in experiment [4]. In addition, the MIC was > 10 µg/mL in experiment [5]; 2 µg/mL (≈ 3.43 µM) with Vaccinia virus; > 10 µg/mL with Human alphaherpesvirus 1; > 40 µg/mL in the experiment on Poliovirus 1; > 40 µg/mL with Human respirovirus 3; > 40 µg/mL in the experiment on Sindbis virus. The MIC in experiment [6] is > 40 µg/mL.
For `COCC(=O)NC(CCSC[C@H]1OC(n2ccc3c(N)ncnc32)[C@H](O)[C@@H]1O)C(=O)O` (some centres undefined), the MIC in experiment [1] is > 200 µg/mL; with Human alphaherpesvirus 2, > 400 µg/mL; in the experiment on Coxsackievirus B4 [2], > 400 µg/mL; against Coxsackievirus B4 [3], > 400 µg/mL; in the experiment with Semliki Forest virus it was > 400 µg/mL; in experiment [4], > 400 µg/mL. The MIC in experiment [5] was > 20 µg/mL; against Vaccinia virus, > 400 µg/mL; in the experiment with Human alphaherpesvirus 1, > 400 µg/mL; against Poliovirus 1 it was > 400 µg/mL; in the experiment with Human respirovirus 3, > 400 µg/mL; against Sindbis virus, > 400 µg/mL. Besides, in experiment [6], the MIC is > 400 µg/mL.
For `CC(=O)NC(CCSC[C@H]1OC(n2ccc3c(N)ncnc32)[C@H](O)[C@@H]1O)C(=O)O` (some centres undefined), the MIC in experiment [1] was > 200 µg/mL; in the experiment with Human alphaherpesvirus 2 it was > 200 µg/mL; in the experiment on Coxsackievirus B4 [2], > 400 µg/mL; in the experiment with Coxsackievirus B4 [3], > 400 µg/mL; against Semliki Forest virus, > 400 µg/mL; in experiment [4] it was > 400 µg/mL. Moreover, the MIC in [5] is > 200 µg/mL; in the experiment on Vaccinia virus it was 7 µg/mL (≈ 16.5 µM); in the experiment on Human alphaherpesvirus 1 it was > 200 µg/mL; against Poliovirus 1, > 400 µg/mL; against Human respirovirus 3, > 400 µg/mL; against Sindbis virus it was > 400 µg/mL. The MIC in experiment [6] is > 700 µg/mL.
